This is an account of results in ChEMBL document CHEMBL4266060, “Structure-Property Relationship Studies of Influenza A Virus AM2-S31N Proton Channel Blockers” (ACS Med Chem Lett, 2018).

The nature of data set [1]: Half life in mouse liver microsomes at 0.5 uM. Conditions: for half-life at 0.5 µM: liver microsomes. It counts as ADME, microsome.
Data set [2] concerns Influenza A virus. The data set can be described thus: Inhibition of Influenza A virus AM2 expressed in xenopus laevis frog oocytes assessed as inhibition of channel current at 100 uM after 2 mins by two-electrode voltage clamp assay relative to control. In kind it is cell-based.
For data set [3], the system named is Influenza A virus. In kind it is functional, A/California/07/2009(H1N1), MDCK.
The nature of data set [4]: Cytotoxicity against MDCK cells after 48 hrs by neutral red uptake assay. In kind it is cell-based, Canis lupus familiaris. Conditions: dog.
A short description of data set [5]: Half life in mouse liver microsomes at 1 uM in presence of NADPH generating system by LC-MS/MS analysis. It counts as ADME, microsome.
The nature of data set [6]: Intrinsic clearance in mouse liver microsomes at 1 uM in presence of NADPH generating system by LC-MS/MS analysis. It counts as ADME, microsome. As to conditions: read-out: CLH.
Data set [7] is described as follows: Half life in human liver microsomes at 1 uM in presence of NADPH generating system by LC-MS/MS analysis. It counts as ADME, microsome.
Data set [8] can be described thus: Permeability of the compound by PAMPA. In kind it is ADME. Conditions: read-out: permeability.
Data set [9] has as its system Influenza A virus. The data set can be described thus: microbe, parasite or virus in culture. As to conditions: A/California/07/2009(H1N1), MDCK.
Description: Antiviral activity against Influenza A virus (A/California/07/2009(H1N1)) infected in MDCK cells expressing ST6Gal-1 assessed as reduction in plaque formation pretreated with virus for 30 mins followed by viral infection measured after 2 to 3 days by naphthalene black dye based assay
The subject of data set [10] is Influenza A virus. It counts as functional, organism-based. Conditions: A/California/07/2009(H1N1), MDCK, 30 nM.
Data set [11] concerns Influenza A virus. In kind it is functional, organism-based. As to conditions: A/California/07/2009(H1N1), MDCK, 30 nM. This is another data set of the same source.
The test system of data set [12] is Influenza A virus. It counts as functional, organism-based. As to conditions: A/California/07/2009(H1N1), A549, 30 nM.
Data set [13] in a line: Intrinsic clearance in mouse liver microsomes at 0.5 uM. It counts as ADME, microsome. Conditions: read-out: CLH.
Data set [14] deals with Influenza A virus. It counts as functional, organism-based. As to conditions: A/California/07/2009(H1N1), MDCK, 10 uM.
Data set [15] concerns Influenza A virus. In kind it is functional, A/California/07/2009(H1N1), A549.
In data set [16] the test system is Influenza A virus. It counts as functional, A/California/07/2009(H1N1), A549. This is another data set of the same source.
Data set [17] has as its system Influenza A virus. It counts as functional, A/California/07/2009(H1N1), A549. The source holds these as a separate data set.

Each structure is given as a SMILES string. pEC50: −log10 of the molar value. Calls of active or inactive are those of the source. The rule behind the calls is not given here. A value given as a limit tells only on which side of the number the result lay.

In the case of `C[Si](C)(C)c1ccc(CNC23CC4CC(CC(O)(C4)C2)C3)cc1`, the t1/2 in data set [1] (microsomes, 0.5 µM) was 4.4 min.

For `OC12CC3CC(C1)CC(NCc1ccc(Br)s1)(C3)C2`, the inhibition with Influenza A virus [2] was determined as 11.4%. In addition, the Activity in the data set with Influenza A virus [3] stood at 3.9%. In addition, the CC50 at 48 h in [4] is 238 µM. For the same compound, the half-life at 1 µM in data set [5] and in data set [7] was over 145 min throughout. Besides, the CLint scaled at 1 µM in [6] is under 38 mL/min/kg. Besides, the Papp in [8] was found to be 25.3 ×10⁻⁶ cm/s. In the data set on Influenza A virus [9], this compound showed a pEC50 of 5.96.

For the compound `OC12CC3CC(C1)CC(NCc1cc(Br)cs1)(C3)C2`, the inhibition in the data set with Influenza A virus [2] is 6.5%. Further, the Activity with Influenza A virus [3] was determined as 31.4%. Moreover, in data set [4], half-maximal cytotoxicity (CC50 at 48 h) was put at 381 µM. Besides, the half-life at 1 µM in data set [5] is 101 min. For the same compound, the CLint scaled at 1 µM in data set [6] worked out at 54.5 mL/min/kg. The pEC50 in the data set with Influenza A virus [9] is 5.51.

Turning to `COc1ccc(-c2ccc(CNC34CC5CC(CC(O)(C5)C3)C4)s2)cc1OC`, the inhibition with Influenza A virus [2] came to 0%. This compound also came in with an Activity with Influenza A virus [3] of 67.5%.

Take `OC12CC3CC(C1)CC(NCc1ccc(-c4ccc(F)cc4F)s1)(C3)C2`: in the data set on Influenza A virus [2], the inhibition was 0%. Besides, in the data set with Influenza A virus [3], the Activity stood at 44.1%.

Take `CCC(CC)O[C@@H]1C=C(C(=O)O)C[C@H](N)[C@H]1NC(C)=O` [OSELTAMIVIR CARBOXYLATE]: in data set [4], the half-maximal cytotoxic concentration (CC50) at 48 h is over 20 µM. Moreover, in the data set on Influenza A virus [10], the outcome was Active. For the same compound, the outcome in the data set with Influenza A virus [11] and in the data set on Influenza A virus [12] was inactive. In the data set on Influenza A virus [9], the pEC50 was 8.62.

Take `OC12CC3CC(C1)CC(NCc1cnc(Br)s1)(C3)C2`: the inhibition in the data set on Influenza A virus [2] worked out at 2.7%. The Activity with Influenza A virus [3] is reported as 102.1%.

With `Brc1ccc(CNC23CC4CC(CC(C4)C2)C3)[se]1`, the inhibition in the data set on Influenza A virus [2] worked out at 56.1%. In addition, the Activity in the data set on Influenza A virus [3] is reported as 0%. Moreover, half-maximal cytotoxicity in data set [4] (CC50 at 48 h) was put at 82.1 µM. In [5], the half-life at 1 µM was determined as 32.1 min. Also, the CLint scaled at 1 µM in data set [6] is 171 mL/min/kg. Moreover, in the data set on Influenza A virus [9], the pEC50 was 5.66.

Take `OC12CC3CC(C1)CC(NCc1nc(Br)cs1)(C3)C2`: the inhibition in the data set on Influenza A virus [2] was 3.9%. In the data set on Influenza A virus [3], this compound displayed an Activity of 108%.

`OC12CC3CC(C1)CC(NCc1ccc(-c4ccccc4)s1)(C3)C2`: the inhibition with Influenza A virus [2] worked out at 0.3%. This compound also came in with an Activity in the data set with Influenza A virus [3] of 27.9%. This compound came in with a 50% cytotoxic concentration (CC50) at 48 h in data set [4] of 80.5 µM. In addition, the negative logarithm of the EC50 (pEC50) in the data set with Influenza A virus [9] was 5.68.

For the compound `Brc1ccc(CNC23CC4CC(CC(C4)C2)C3)s1`, the inhibition in the data set on Influenza A virus [2] came to 77.2%. Moreover, the Activity in the data set with Influenza A virus [3] is 3.2%. Moreover, the half-maximal cytotoxic concentration (CC50) at 48 h in data set [4] was found to be 123 µM. In addition, the half-life at 1 µM in [5] is over 145 min. In addition, the CLint scaled at 1 µM in [6] is under 38 mL/min/kg. Also, the half-life at 0.5 µM in [1] was over 145 min. Besides, in data set [13], the CLint scaled at 0.5 µM is under 38 mL/min/kg. Further, the negative-log EC50 (pEC50) with Influenza A virus [9] was 5.54.

Consider `OC12CC3CC(C1)CC(NCc1csc(Br)c1)(C3)C2`, for which the inhibition in the data set with Influenza A virus [2] stood at 1.9%. The same compound gave an Activity in the data set with Influenza A virus [3] of 31.3%. The compound also registered a CC50 at 48 h in [4] of 364 µM. Further, in the data set on Influenza A virus [9], the negative-log EC50 (pEC50) is 5.29.

Compound `OC12CC3CC(C1)CC(NCc1ccc(N4CCCCCC4)cn1)(C3)C2` had a half-life at 0.5 µM in [1] of 22.1 min. Moreover, in data set [13], the CLint scaled at 0.5 µM came to 248 mL/min/kg.

As to `COc1ncc(-c2ccc(CNC34CC5CC(CC(O)(C5)C3)C4)s2)cn1`, in the data set with Influenza A virus [2], the inhibition was determined as 0%. This compound displayed an Activity in the data set on Influenza A virus [3] of 74%.

On to `c1csc(-c2ccc(CNC34CC5CC(CC(C5)C3)C4)s2)c1`, for which, in the data set on Influenza A virus [2], the inhibition stood at 17.9%. In the data set with Influenza A virus [3], this compound registered an Activity of 58.5%. Besides, the CC50 at 48 h in [4] worked out at 19.5 µM. For the same compound, the half-life at 1 µM in data set [5] was determined as 2.8 min. For the same compound, the CLint scaled at 1 µM in data set [6] turned out to be 1940 mL/min/kg. The compound further showed a pEC50 in the data set on Influenza A virus [9] of 4.92.

Turning to `Ic1ccc(CNC23CC4CC(CC(C4)C2)C3)s1`, in the data set with Influenza A virus [2], the inhibition is 91%. Also, the Activity in the data set on Influenza A virus [3] is listed as 1.8%. This compound also came in with a cytotoxic concentration (CC50) at 48 h in [4] of 70.2 µM. Moreover, the half-life at 1 µM in data set [5] came out at 24.5 min. Besides, the CLint scaled at 1 µM in data set [6] came out at 224 mL/min/kg. Besides, in the data set on Influenza A virus [9], the negative-log EC50 (pEC50) is 6.00.

`c1csc(-c2cc(CNC34CC5CC(CC(C5)C3)C4)no2)c1` displayed an Activity in the data set with Influenza A virus [3] of 0%.

In data set [1], `OC12CC3CC(C1)CC(NCc1cnc(N4CCCCC4)nc1)(C3)C2` registered a half-life at 0.5 µM of 19.4 min. Moreover, in data set [13], the CLint scaled at 0.5 µM turned out to be 283 mL/min/kg.

In the case of `OC12CC3CC(C1)CC(NCc1ccc(I)s1)(C3)C2`, the inhibition in the data set with Influenza A virus [2] was determined as 3.2%. The Activity worked out at 2.5% in the data set with Influenza A virus [3], 1.8 log10PFU/ml in the data set on Influenza A virus [15], 2.1 log10PFU/ml in the data set with Influenza A virus [16] and 2.9 log10PFU/ml in the data set with Influenza A virus [17]. Besides, in data set [4], the 50% cytotoxic concentration (CC50) at 48 h was determined as 317 µM. The half-life at 1 µM in [5] and in [7] was over 145 min each time. The CLint scaled at 1 µM in data set [6] was under 38 mL/min/kg. Further, the Papp in data set [8] stood at 20.4 ×10⁻⁶ cm/s. In addition, in the data set with Influenza A virus [14], the outcome was Active. In addition, the negative logarithm of the EC50 (pEC50) with Influenza A virus [9] is 6.05.

Turning to `COc1ccc(-c2ccc(CNC34CC5CC(CC(O)(C5)C3)C4)s2)cn1`, in the data set on Influenza A virus [2], the inhibition worked out at 0%. The compound also gave an Activity in the data set on Influenza A virus [3] of 40.5%.

`Brc1ccc(CNC23CCC4CC(CC(C4)C2)C3)s1`: the inhibition with Influenza A virus [2] was 86.5%. Moreover, the Activity with Influenza A virus [3] is given as 0%. The midpoint of cytotoxicity in data set [4], the CC50 at 48 h, lay at 43.1 µM. In addition, in data set [5], the half-life at 1 µM was found to be 9.1 min. In addition, the CLint scaled at 1 µM in data set [6] was found to be 604 mL/min/kg. For the same compound, the pEC50 with Influenza A virus [9] is 6.22.

For `c1nc(N2CCCCCC2)ncc1CNC12CC3CC(CC(C3)C1)C2`, the half-life at 0.5 µM in data set [1] is 0.8 min. The CLint scaled at 0.5 µM in data set [13] came to 6760 mL/min/kg.

Turning to `COC(=O)c1ccc(-c2ccc(CNC34CC5CC(CC(O)(C5)C3)C4)s2)cc1`, in the data set with Influenza A virus [2], the inhibition was 0%. Also, in the data set with Influenza A virus [3], the Activity is given as 52%.

In the case of `CSc1ccccc1-c1ccc(CNC23CC4CC(CC(O)(C4)C2)C3)s1`, the inhibition with Influenza A virus [2] was found to be 0%. Also, in the data set with Influenza A virus [3], the Activity is 47.7%.

Regarding `OC12CC3CC(C1)CC(NCc1ccc(-c4ccccc4Cl)s1)(C3)C2`, the inhibition in the data set with Influenza A virus [2] was found to be 0%. This compound also displayed an Activity in the data set with Influenza A virus [3] of 20.4%. In data set [4], half-maximal cytotoxicity (CC50 at 48 h) was put at 65.2 µM. In addition, in the data set on Influenza A virus [9], the pEC50 was 5.60.
